According to patent US20230066946A1, “1,5-DIPHENYLPYRAZOLYL-3-OXYALKYL ACIDS AND 1-PHENYL-5-THIENYLPYRAZOLYL-3-OXYALKYL ACIDS AND THE USE THEREOF FOR CONTROL OF UNWANTED PLANT GROWTH” (Bayer Aktiengesellschaft, priority 2019, published 2023):

Assays:
[1] = tested on: ECHCG; experiment: Post-emergence herbicidal action against ECHCG; type: in vivo, Echinochloa crus-galli; conditions: 1280 g/ha, post-emergence at one-leaf stage, rated visually after about 3 weeks vs untreated controls
How it was run: (§1)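 Weeds grown in sandy loam under greenhouse conditions were sprayed at the one-leaf stage, 2-3 weeks after sowing. Compounds were applied as WP or EC formulations in water with 0.5% additive at 600 L/ha, at 1280 or 320 g/ha. Activity was rated visually about 3 weeks later against untreated controls (0-100%).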

[2] = tested on: harmful plants; experiment: Pre-emergence herbicidal action, summary of Tables 4.1-4.15; type: in vivo; conditions: result in words
How it was run: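 Percent herbicidal action (100% = plants dead, 0% = like controls) was assessed visually about 3 weeks after treatment. Application rates of 1280 or 320 g/ha were applied to the covering soil of freshly sown sandy-loam pots, in 600 l/ha water with 0.5% additive, before emergence.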

[3] = tested on: MATIN; experiment: Pre-emergence herbicidal action against MATIN; type: in vivo, Matricaria inodora; conditions: 1280 g/ha, scored visually after about 3 weeks vs untreated controls
How it was run: (§2)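 Scoring is visual, in percent relative to untreated pots, roughly 3 weeks after soil-surface application. Rates were 1280 or 320 g/ha, delivered as WP or EC preparations with 0.5% additive in 600 L/ha water onto freshly sown, covered sandy loam.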

[4] = tested on: SETVI; experiment: Post-emergence herbicidal action against SETVI; type: in vivo, Setaria viridis; conditions: 1280 g/ha, post-emergence at one-leaf stage, rated visually after about 3 weeks vs untreated controls
How it was run: as §1

[5] = tested on: VIOTR; experiment: Pre-emergence herbicidal action against VIOTR; type: in vivo, Viola tricolor; conditions: 1280 g/ha, scored visually after about 3 weeks vs untreated controls
How it was run: as §2

[6] = tested on: POLCO; experiment: Post-emergence herbicidal action against POLCO; type: in vivo, Polygonum convolvulus; conditions: 320 g/ha, visual rating about 3 weeks after treatment
How it was run: as §1

[7] = tested on: STEME; experiment: Post-emergence herbicidal action against STEME; type: in vivo, Stellaria media; conditions: visual rating about 3 weeks after treatment
How it was run: as §1

[8] = tested on: SETVI; experiment: Pre-emergence herbicidal action against SETVI; type: in vivo, Setaria viridis; conditions: 1280 g/ha, scored visually after about 3 weeks vs untreated controls
How it was run: as §2

[9] = tested on: STEME; experiment: Pre-emergence herbicidal action against STEME; type: in vivo, Stellaria media; conditions: scored visually after about 3 weeks vs untreated controls
How it was run: as §2

[10] = tested on: CYPES; experiment: Pre-emergence herbicidal action against CYPES; type: in vivo, Cyperus esculentus; conditions: scored visually after about 3 weeks vs untreated controls, 100% = plants have died, 0% = like control plants
How it was run: as §2

[11] = tested on: AMARE; experiment: Pre-emergence herbicidal action against AMARE; type: in vivo, Amaranthus retroflexus; conditions: scored visually after about 3 weeks vs untreated controls; for Pre-emergence action at 320 g/ha against AMARE in %: 100% = plants have died, 0% = like control plants; for Pre-emergence action against AMARE in %: 1280 g/ha
How it was run: as §2

[12] = tested on: AMARE; experiment: Post-emergence herbicidal action against AMARE; type: in vivo, Amaranthus retroflexus; conditions: visual rating about 3 weeks after treatment
How it was run: as §1

[13] = tested on: ALOMY; experiment: Post-emergence herbicidal action against ALOMY; type: in vivo, Alopecurus myosuroides; conditions: 1280 g/ha, post-emergence at one-leaf stage, rated visually after about 3 weeks vs untreated controls
How it was run: as §1

[14] = tested on: ECHCG; experiment: Pre-emergence herbicidal action against ECHCG; type: in vivo, Echinochloa crus-galli; conditions: scored visually after about 3 weeks vs untreated controls, 100% = plants have died, 0% = like control plants
How it was run: as §2

[15] = tested on: VIOTR; experiment: Post-emergence herbicidal action against VIOTR; type: in vivo, Viola tricolor; conditions: 320 g/ha, visual rating about 3 weeks after treatment
How it was run: as §1

[16] = tested on: PHBPU; experiment: Pre-emergence herbicidal action against PHBPU; type: in vivo, Pharbitis purpurea; conditions: 1280 g/ha, scored visually after about 3 weeks vs untreated controls
Text: (§3) Seeds of mono- and dicotyledonous weed plants are placed in plastic pots in sandy loam soil (doubly sown with one species each of mono- or dicotyledonous weed plants per pot) and covered with soil. The compounds of the invention, formulated in the form of wettable powders (WP) or as emulsion concentrates (EC), are then applied onto the surface of the covering soil as aqueous suspension or emulsion with addition of 0.5% additive at a water application rate equivalent to 600 litres per hectare. After the treatment, the pots are placed in a greenhouse and kept under good growth conditions for the trial plants. After about 3 weeks, the effect of the preparations is scored visually in comparison with untreated controls as percentages. For example, 100% activity=the plants have died, 0% activity=like control plants. [table] Tables 4.1-4.15 below show the effects of selected compounds of the general formula (I) according to Tables 1 to 3 on various harmful plants at an application rate corresponding to 1280 or 320 g/ha, which have been obtained by the aforementioned experimental method.

[17] = tested on: PHBPU; experiment: Post-emergence herbicidal action against PHBPU; type: in vivo, Pharbitis purpurea; conditions: 320 g/ha, visual rating about 3 weeks after treatment
How it was run: as §1

[18] = tested on: ALOMY; experiment: Pre-emergence herbicidal action against ALOMY; type: in vivo, Alopecurus myosuroides; conditions: scored visually after about 3 weeks vs untreated controls, 100% = plants have died, 0% = like control plants
Text: as §3

[19] = tested on: MATIN; experiment: Post-emergence herbicidal action against MATIN; type: in vivo, Matricaria inodora; conditions: visual rating about 3 weeks after treatment
How it was run: as §1

[20] = tested on: HORMU; experiment: Pre-emergence herbicidal action against HORMU; type: in vivo, Hordeum murinum; conditions: 320 g/ha, scored visually after about 3 weeks vs untreated controls
Text: as §3

[21] = tested on: POLCO; experiment: Pre-emergence herbicidal action against POLCO; type: in vivo, Polygonum convolvulus; conditions: 320 g/ha, scored visually after about 3 weeks vs untreated controls
How it was run: as §2

[22] = tested on: HORMU; experiment: Post-emergence herbicidal action against HORMU; type: in vivo, Hordeum murinum; conditions: 320 g/ha, visual rating about 3 weeks after treatment
Experimental: [table] Seeds of mono- and dicotyledonous weed plants are placed in plastic pots in sandy loam soil (twin sowing with one species each of mono- or dicotyledonous weed plants per pot), covered with soil and cultivated in a greenhouse under controlled growth conditions. 2 to 3 weeks after sowing, the test plants are treated at the one-leaf stage. The compounds of the invention, formulated in the form of wettable powders (WP) or as emulsion concentrates (EC), are applied to the green parts of the plants as aqueous suspension or emulsion with addition of 0.5% additive at a water application rate equivalent to 600 litres per hectare. After the test plants have been kept in the greenhouse under optimum growth conditions for about 3 weeks, the activity of the preparations is rated visually in comparison to untreated controls. For example, 100% activity=the plants have died, 0% activity=like control plants. Tables 5.1-5.16 below show the effects of selected compounds of the general formula (I) according to Tables 1 to 3 on various harmful plants at an application rate corresponding to 1280 or 320 g/ha, which have been obtained by the aforementioned experimental method.

COC(=O)C(C)Oc1nn(-c2ccccc2F)c(-c2ccccc2)c1C#N (centres unmarked) [I-061]
Post-emergence action against ECHCG in % [1]: 80% | herbicidal efficacy against harmful plants in the case of pre-emergence treatment [2]: good herbicidal efficacy | Pre-emergence action against MATIN in % [3]: 90% | Post-emergence action against SETVI in % [4]: 80% | Pre-emergence action against VIOTR in % [5]: 90% | Post-emergence action against POLCO in % [6]: 80% | Post-emergence action against STEME in % ([7]; 1280 g/ha): 80% | Pre-emergence action against SETVI in % [8]: 100% | Pre-emergence action against STEME in % ([9]; 320 g/ha): 90% | Pre-emergence action against STEME in % ([9]; 1280 g/ha): 100% | Pre-emergence action at 1280 g/ha against CYPES in % [10]: 90% | Pre-emergence action at 320 g/ha against AMARE in % [11]: 90% | Pre-emergence action against AMARE in % [11]: 100% | Post-emergence action against AMARE in % ([12]; 320 g/ha): 80% | Post-emergence action against AMARE in % ([12]; 1280 g/ha): 80% | Post-emergence action against ALOMY in % [13]: 90% | Pre-emergence action at 1280 g/ha against ECHCG in % [14]: 90% | Post-emergence action against VIOTR in % [15]: 80% | Pre-emergence action against PHBPU in % [16]: 90% | Post-emergence action against PHBPU in % [17]: 80% | Pre-emergence action at 1280 g/ha against ALOMY in % [18]: 90%

COC(=O)C(C)Oc1nn(-c2ccccc2)c(-c2ccc(F)cc2)c1C#N (centres unmarked) [I-064]
Post-emergence action against MATIN in % ([19]; 320 g/ha): 80% | Post-emergence action against POLCO in % [6]: 80% | Post-emergence action against STEME in % ([7]; 320 g/ha): 90% | Pre-emergence action against STEME in % ([9]; 320 g/ha): 90% | Pre-emergence action against HORMU in % [20]: 90% | Pre-emergence action at 320 g/ha against AMARE in % [11]: 100% | Pre-emergence action against POLCO in % [21]: 100% | Post-emergence action against VIOTR in % [15]: 100% | Post-emergence action against HORMU in % [22]: 90% | Post-emergence action against PHBPU in % [17]: 80%

CCOC(=O)COc1nn(-c2ccccc2)c(-c2ccccc2)c1Br [I-070]
Post-emergence action against ECHCG in % [1]: 80% | herbicidal efficacy against harmful plants in the case of pre-emergence treatment [2]: good herbicidal efficacy | Post-emergence action against MATIN in % ([19]; 1280 g/ha): 80% | Pre-emergence action against MATIN in % [3]: 90% | Pre-emergence action against VIOTR in % [5]: 90% | Post-emergence action against STEME in % ([7]; 1280 g/ha): 90% | Pre-emergence action against SETVI in % [8]: 90% | Pre-emergence action against STEME in % ([9]; 320 g/ha): 80% | Pre-emergence action against STEME in % ([9]; 1280 g/ha): 90% | Pre-emergence action at 1280 g/ha against CYPES in % [10]: 80% | Pre-emergence action at 320 g/ha against AMARE in % [11]: 100% | Pre-emergence action against AMARE in % [11]: 100% | Post-emergence action against AMARE in % ([12]; 1280 g/ha): 80% | Pre-emergence action against POLCO in % [21]: 80% | Post-emergence action against ALOMY in % [13]: 80% | Pre-emergence action at 1280 g/ha against ECHCG in % [14]: 90% | Pre-emergence action against PHBPU in % [16]: 90% | Post-emergence action against PHBPU in % [17]: 90% | Pre-emergence action at 1280 g/ha against ALOMY in % [18]: 90%
